Data as given in patent US6528456B2, “Herbicidal 2-pyrazolyl-6-aryloxypyri(mi)dines” (BASF Aktiengesellschaft, priority 1999, dated 2003).

Test system: Stellaria media
Assay: Post-emergence test
Type: in vivo
Settings: 2-4 weeks after treatment
Description: To evaluate their herbicidal activity, compounds according to the invention are tested using a representative range of plants: STEME Stellaria media [table] […] These acetone solutions are diluted with water and the resulting formulations applied at dosage levels equivalent of about 0.1 to 0. 4 kg per hectare of test compound per pot. After spraying the plants are placed on greenhouse benches and are cared for in the usual manner, commensurate with conventional greenhouse practices. From 2 to 4 weeks after treatment, the seedling plants are examined and rated according to the rating system provided above.

In the case of Cc1cnc(-c2cc(C(F)(F)F)nn2C)nc1Oc1cc(C(F)(F)F)nn1C [Example 4, 2-(1-Methyl-3-trifluoromethylpyrazol-5-yl)-6-(1-methyl-3-trifluoromethylpyrazol-5-yloxy)-5-methylpyrimidine], the STEME herbicidal rating (0.1 kg/ha) is reported as 5 (5 - Definite injury) and the STEME herbicidal rating (0.4 kg/ha) is reported as 6 (6 - Herbicidal effect).
